In PubChem BioAssay AID1963834 (Molecular Pharmacology Branch, DTP, NCI, 2024):

System: 873145-292-R-J1-PDC complex spheroid viability
Experiment: Anticancer human tumor 873145-292-R-J1-PDC patient-derived renal clear cell carcinoma cell line growth inhibition [POLQ]
Conditions: for IC50: curve of first compound; for viability, T/C: stronger effect = lower value; active = viability on the fitted dose curve at most 10% of control; inactive = the rest
Procedure, shortened: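 Growth inhibition in 3D: complex spheroids (tumor PDC, HUVEC, MSC) treated with POLQ inhibitor combinations; where Cmax unknown, highest tested concentration 10 microM, except SN-38 at 1 microM.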

[1] = second compound 0.0316 µM, first compound 0.0316 µM
[2] = second compound 0.0316 µM, first compound 0.1 µM
[3] = second compound 0.0316 µM, first compound 0.316 µM
[4] = second compound 0.0316 µM, first compound 1 µM
[5] = second compound 0.0316 µM, first compound 3.16 µM
[6] = second compound 0.0316 µM, first compound 10 µM
[7] = second compound 0.1 µM, first compound 0.0316 µM
[8] = second compound 0.1 µM, first compound 0.1 µM
[9] = second compound 0.1 µM, first compound 0.316 µM
[10] = second compound 0.1 µM, first compound 1 µM
[11] = second compound 0.1 µM, first compound 3.16 µM
[12] = second compound 0.1 µM, first compound 10 µM
[13] = second compound 0.316 µM, first compound 0.0316 µM
[14] = second compound 0.316 µM, first compound 0.1 µM
[15] = second compound 0.316 µM, first compound 0.316 µM
[16] = second compound 0.316 µM, first compound 1 µM
[17] = second compound 0.316 µM, first compound 3.16 µM
[18] = second compound 0.316 µM, first compound 10 µM
[19] = second compound 1 µM, first compound 0.0316 µM
[20] = second compound 1 µM, first compound 0.1 µM
[21] = second compound 1 µM, first compound 0.316 µM
[22] = second compound 1 µM, first compound 1 µM
[23] = second compound 1 µM, first compound 3.16 µM
[24] = second compound 1 µM, first compound 10 µM
[25] = second compound 3.16 µM, first compound 0.0316 µM
[26] = second compound 3.16 µM, first compound 0.1 µM
[27] = second compound 3.16 µM, first compound 0.316 µM
[28] = second compound 3.16 µM, first compound 1 µM
[29] = second compound 3.16 µM, first compound 3.16 µM
[30] = second compound 3.16 µM, first compound 10 µM
[31] = second compound 10 µM, first compound 0.0316 µM
[32] = second compound 10 µM, first compound 0.1 µM
[33] = second compound 10 µM, first compound 0.316 µM
[34] = second compound 10 µM, first compound 1 µM
[35] = second compound 10 µM, first compound 3.16 µM
[36] = second compound 10 µM, first compound 10 µM
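Note: spheroids exposed to compounds for 7 days before viability readout.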
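Throughout, for viability, T/C: luminescence signal used as surrogate for viable cell content; 100% = DMSO vehicle control viability.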

CCc1cc2c(N3CCc4c(cc(Cn5ccnc5)cc4-c4cn(C)nc4C(F)(F)F)C3=O)cc(C)nc2c(OC)n1 + Cc1cccc(N(C)C(=O)C2C(O)CCN2c2nc(C)cc(C(F)(F)F)c2C#N)c1
> 10 µM: IC50 (second compound 0.0316 µM) | IC50 (second compound 0.1 µM) | IC50 (second compound 0.316 µM) | IC50 (second compound 1 µM) | IC50 (second compound 3.16 µM) | IC50 (second compound 10 µM)
inactive: viability, T/C [1] 99.1% | viability, T/C [2] 99.8% | viability, T/C [3] 102% | viability, T/C [4] 77.3% | viability, T/C [5] 105% | viability, T/C [6] 83.2% | viability, T/C [7] 97.1% | viability, T/C [8] 99.8% | viability, T/C [9] 80.5% | viability, T/C [10] 90.5% | viability, T/C [11] 93.9% | viability, T/C [12] 89.8% | viability, T/C [13] 97.4% | viability, T/C [14] 102% | viability, T/C [15] 76.1% | viability, T/C [16] 97.5% | viability, T/C [17] 84.2% | viability, T/C [18] 87.4% | viability, T/C [19] 93% | viability, T/C [20] 86.5% | viability, T/C [21] 91.4% | viability, T/C [22] 79.4% | viability, T/C [23] 102% | viability, T/C [24] 70.2% | viability, T/C [25] 90.7% | viability, T/C [26] 87.4% | viability, T/C [27] 87.5% | viability, T/C [28] 96.7% | viability, T/C [29] 77.2% | viability, T/C [30] 89.6% | viability, T/C [31] 89.1% | viability, T/C [32] 102% | viability, T/C [33] 93.1% | viability, T/C [34] 88.5% | viability, T/C [35] 76.7% | viability, T/C [36] 81.6%

CCCS(=O)(=O)Nc1ccc(F)c(C(=O)c2c[nH]c3ncc(-c4ccc(Cl)cc4)cc23)c1F + COC1C(OC(N)=O)C(O)C(Oc2ccc3c(O)c(NC(=O)c4ccc(O)c(CC=C(C)C)c4)c(=O)oc3c2C)OC1(C)C
inactive: viability, T/C [1] 118% | viability, T/C [2] 98.8% | viability, T/C [3] 99.4% | viability, T/C [4] 107% | viability, T/C [5] 90.7% | viability, T/C [6] 62.5% | viability, T/C [7] 113% | viability, T/C [8] 108% | viability, T/C [9] 108% | viability, T/C [10] 112% | viability, T/C [11] 89.8% | viability, T/C [12] 57.7% | viability, T/C [13] 104% | viability, T/C [14] 92.5% | viability, T/C [15] 98.9% | viability, T/C [16] 99.8% | viability, T/C [17] 94.9% | viability, T/C [18] 57.3% | viability, T/C [19] 96.9% | viability, T/C [20] 111% | viability, T/C [21] 102% | viability, T/C [22] 107% | viability, T/C [23] 94.2% | viability, T/C [24] 60.9% | viability, T/C [25] 102% | viability, T/C [26] 103% | viability, T/C [27] 105% | viability, T/C [28] 91.2% | viability, T/C [29] 89.5% | viability, T/C [30] 53.2% | viability, T/C [31] 89.3% | viability, T/C [32] 93.3% | viability, T/C [33] 98.8% | viability, T/C [34] 106% | viability, T/C [35] 93.2% | viability, T/C [36] 64.7%
> 10 µM: IC50 (second compound 0.0316 µM) | IC50 (second compound 0.1 µM) | IC50 (second compound 0.316 µM) | IC50 (second compound 1 µM) | IC50 (second compound 3.16 µM) | IC50 (second compound 10 µM)

CCCS(=O)(=O)Nc1ccc(F)c(C(=O)c2c[nH]c3ncc(-c4ccc(Cl)cc4)cc23)c1F + Nc1ccc(C#CCN(C(=O)Cc2ncc(C(F)(F)F)cc2C(F)(F)F)c2ccc(F)cc2)nn1
> 10 µM: IC50 (second compound 0.0316 µM) | IC50 (second compound 0.1 µM) | IC50 (second compound 0.316 µM) | IC50 (second compound 1 µM) | IC50 (second compound 3.16 µM) | IC50 (second compound 10 µM)
inactive: viability, T/C [1] 106% | viability, T/C [2] 106% | viability, T/C [3] 115% | viability, T/C [4] 97% | viability, T/C [5] 103% | viability, T/C [6] 71.2% | viability, T/C [7] 103% | viability, T/C [8] 110% | viability, T/C [9] 91.9% | viability, T/C [10] 98% | viability, T/C [11] 105% | viability, T/C [12] 63.3% | viability, T/C [13] 109% | viability, T/C [14] 107% | viability, T/C [15] 93.3% | viability, T/C [16] 112% | viability, T/C [17] 99.2% | viability, T/C [18] 75.6% | viability, T/C [19] 98.7% | viability, T/C [20] 98.9% | viability, T/C [21] 102% | viability, T/C [22] 102% | viability, T/C [23] 91.1% | viability, T/C [24] 63% | viability, T/C [25] 106% | viability, T/C [26] 113% | viability, T/C [27] 108% | viability, T/C [28] 108% | viability, T/C [29] 101% | viability, T/C [30] 75.4% | viability, T/C [31] 121% | viability, T/C [32] 121% | viability, T/C [33] 111% | viability, T/C [34] 107% | viability, T/C [35] 110% | viability, T/C [36] 78.5%

CNCc1ccc(-c2[nH]c3cc(F)cc4c3c2CCNC4=O)cc1 + Cc1cccc(N(C)C(=O)C2C(O)CCN2c2nc(C)cc(C(F)(F)F)c2C#N)c1
> 10 µM: IC50 (second compound 0.0316 µM) | IC50 (second compound 0.1 µM) | IC50 (second compound 0.316 µM) | IC50 (second compound 1 µM) | IC50 (second compound 3.16 µM) | IC50 (second compound 10 µM)
inactive: viability, T/C [1] 93.1% | viability, T/C [2] 111% | viability, T/C [3] 96.6% | viability, T/C [4] 96.4% | viability, T/C [5] 110% | viability, T/C [6] 96.2% | viability, T/C [7] 110% | viability, T/C [8] 94.1% | viability, T/C [9] 89.5% | viability, T/C [10] 91.8% | viability, T/C [11] 108% | viability, T/C [12] 99.9% | viability, T/C [13] 111% | viability, T/C [14] 101% | viability, T/C [15] 99% | viability, T/C [16] 91.3% | viability, T/C [17] 97.5% | viability, T/C [18] 111% | viability, T/C [19] 99.5% | viability, T/C [20] 102% | viability, T/C [21] 99.1% | viability, T/C [22] 109% | viability, T/C [23] 101% | viability, T/C [24] 95.9% | viability, T/C [25] 102% | viability, T/C [26] 91% | viability, T/C [27] 97.6% | viability, T/C [28] 87.9% | viability, T/C [29] 101% | viability, T/C [30] 107% | viability, T/C [31] 88.6% | viability, T/C [32] 90.4% | viability, T/C [33] 106% | viability, T/C [34] 88.8% | viability, T/C [35] 106% | viability, T/C [36] 94.5%
